This note sets out measurements from patent publication US20240209028A1, “CNP COMPOUNDS” (priority 2022, published 2024).

Molecules are shown by their SMILES. ≈ marks a conversion by molar mass, not a printed value. Starred links: 1 amine or outer side, 2 acyl side, 3 side chain; linkers in the order of their positions; H or OH if unused. Positions of bridges follow the written chain, without caps; N, C: chain ends. Residues, ends and D or L forms follow the SMILES beside them. *: point of attachment. C20 diacid = O=C(O)CCCCCCCCCCCCCCCCCCC(=O)*; C18 diacid = O=C(O)CCCCCCCCCCCCCCCCC(=O)*; γGlu = O=C(O)[C@H](CCC(=O)[*:2])N[*:1]; AEEA = NCCOCCOCC(=O)O

Data set [1] can be described thus: PK of CNP compounds after i.v. and s.c. administration to rats. The following applies: male, Sprague Dawley, in vivo, iv, rat, i.v., about 100 nmol/kg. How it is done:
In order to assess the i.v. and s.c. PK/PD profile of CNP compounds of the present invention, formulations of CNP compounds were administered to rats, blood samples taken and exposure and cGMP response measured.
Quantitative plasma analysis of CNP-compounds: Plasma concentrations of CNP compounds were assayed by plasma protein precipitation and analysed by turboflow liquid chromatography mass spectrometry (TF-LC-MS). Calibrators were prepared by spiking either blank rat or minipig plasma with the relevant CNP compound in the range from 0.5 to 2000 nM. Calibrators, plasma blanks or study samples were prepared for TF-LC-MS by protein precipitation by adding three or four volumes of either ethanol or methanol containing 20 nM of internal standard to one volume of sample. For some compounds, formic acid was added to the precipitation reagent (the final concentration was 1% v/v). After the addition of the precipitation reagent, the mixture was centrifuged at 6200 rpm at 4° C. for 30 minutes. After centrifugation, one volume of supernatant was mixed with two volumes of water (with 1% v/v formic acid). The mixture was analysed by TF-LC-MS using a Cyclone turboflow column (0.5×50 mm, ThermoFisher Scientific) and either a XBridge Protein BEH C4 3.5 μm 300 Åor a XBridge Protein BEH C18 3.5 μm 130 Åanalytical column (both were 50×2.1 mm and obtained from Waters). […] The mass spectrometer was operated in positive ionisation mode. A TSQ Altis mass spectrometer (ThermoFisher Scientific) was used as detector in selected reaction monitoring mode (specific transition were optimised for each CNP compound). Linear calibration curves (weighed 1/×2) were used for calculating the concentration in the plasma samples. Quality control samples were included. The deviation between nominal and calculated concentration in the calibrators and quality control samples were below 15%.
Animals and dosing: Groups of 4-6 rats (male, Sprague Dawley, 350 g at arrival, Janvier, France) per compound and route of administration were dosed with a CNP compound formulated either in A) 8 mM sodium phosphate, 250 mM glycerol, 0.007% polysorbate 20, pH 7.4 or B) 5 mM sodium acetate, 250 mM glycerol, 0.007% polysorbate 20, pH 4.0 depending on the respective compound. S.c. dose was 300 nmol/kg, at a concentration of […] resulting in a dosing volume of 0.3 mL/kg, whereas i.v. dose was 100 nmol/kg, at a concentration of […] resulting in a dosing volume of 1 mL/kg.
Sampling: Sublingual blood samples of 250 uL were collected from unanaesthetised rats in EDTA-coated vials (Microvette 600K3E ref #15.1673.100 Sarstedt) at baseline (-1 h before dosing) as well as 5 min (only i.v. dosed groups), 2 h, 6 h, 24 h, 48 h and 72 h (only for exposure analysis) post-dosing. The blood samples were quickly stored on ice and centrifuged (4° C., 8000 RPM, 5 min) within 10 min of collection. Plasma samples of 50 μL were transferred to each micronic tube for either exposure or cGMP analysis, kept on dry ice and stored in a freezer (−20° C.). Rats had access to food (Altromin) and tap water ad libitum.
Analysis: PK parameters were calculated by non-compartment analysis (NCA) using software Phoenix WinNonlin (ver. 8.1 or later, Certara) for each animal. Clearance (Cl) was calculated as: Dose/AUCinf (linear up, log down). […] Bioavailability was calculated as dose normalized AUC's: (AUC(sc)/Dose(sc))/(AUC(iv)/Dose(iv)). Values in the table are means from individual animals (n=4-6 individual animals). The subsequent plots for cGMP plasma concentration versus time are (Y-axis) mean cGMP concentration (n=4-6 individual animals) after IV dosing and (X-axis) nominal plasma sampling time.
Plasma cGMP are reported as the mean.

In data set [2] the target is T1, human natriuretic peptide receptor 2 (hNPR2) (Homo sapiens, UniProt P20594).
T1 construct: expressed in transfected cells; host or cells: HEK293 (ATCC CRL-1573), clone 35, co-transfected with pGloSensor-42F
T1 sequence (P20594 23-1047): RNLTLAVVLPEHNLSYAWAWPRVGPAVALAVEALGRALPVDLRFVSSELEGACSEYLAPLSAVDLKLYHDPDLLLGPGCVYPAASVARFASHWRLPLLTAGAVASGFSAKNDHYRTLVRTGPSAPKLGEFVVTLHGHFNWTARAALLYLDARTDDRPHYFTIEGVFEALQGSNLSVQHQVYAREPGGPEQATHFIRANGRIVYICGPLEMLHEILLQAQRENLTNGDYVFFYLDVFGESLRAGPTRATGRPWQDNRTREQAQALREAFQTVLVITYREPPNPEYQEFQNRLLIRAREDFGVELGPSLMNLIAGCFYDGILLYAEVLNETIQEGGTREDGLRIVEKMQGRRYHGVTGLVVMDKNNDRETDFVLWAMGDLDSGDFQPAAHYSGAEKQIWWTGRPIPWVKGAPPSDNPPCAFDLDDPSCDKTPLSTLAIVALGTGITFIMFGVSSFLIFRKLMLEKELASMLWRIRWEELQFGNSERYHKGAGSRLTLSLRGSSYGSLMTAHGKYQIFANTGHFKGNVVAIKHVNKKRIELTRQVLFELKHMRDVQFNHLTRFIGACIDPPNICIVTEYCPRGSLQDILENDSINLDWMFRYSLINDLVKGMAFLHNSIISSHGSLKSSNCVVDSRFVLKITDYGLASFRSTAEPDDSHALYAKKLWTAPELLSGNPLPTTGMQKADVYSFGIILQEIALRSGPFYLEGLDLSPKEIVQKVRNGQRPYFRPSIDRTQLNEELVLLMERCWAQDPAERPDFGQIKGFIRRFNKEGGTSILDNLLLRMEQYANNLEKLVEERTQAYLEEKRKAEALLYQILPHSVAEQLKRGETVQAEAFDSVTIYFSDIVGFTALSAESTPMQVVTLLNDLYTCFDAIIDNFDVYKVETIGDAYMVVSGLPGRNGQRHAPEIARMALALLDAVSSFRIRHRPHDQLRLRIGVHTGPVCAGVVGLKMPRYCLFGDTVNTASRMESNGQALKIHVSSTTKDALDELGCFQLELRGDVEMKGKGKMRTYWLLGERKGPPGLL
The data set can be described thus: In vitro hNPR2 activity assay (cGMP GloSensor reporter, HEK293). The format is cell-based. The following applies: potency relative to CNP22 (0065). In short, it runs like this:
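Potency is the EC50 from a four-parameter logistic fit, also expressed relative to the in-plate CNP22 control (×100), with at least two replicates. Compounds (ten concentrations, […], HSA-free diluent with 1% OVA, 0.01% Tween20) were incubated 30 min at 37 °C on HEK293 cells co-expressing hNPR2 and a GloSensor cGMP luciferase. Luminescence detected with Bright-Glo.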

Data set [3] is described as follows: Solubility of CNP compounds at pH 4.0 and pH 6.5. The format is physicochemical. The following applies: 8 mM sodium phosphate, 23 mg/mL glycerol, pH 6.5, room temperature; read-out: Solubility at pH 6.5. How it is done: In order to assess the suitability of CNP compounds for a soluble liquid formulation, the solubility of CNP compounds in pharmaceutically relevant buffers were measured. Solubility at two different pH-levels (pH 4.0 and pH 6.5) was examined as pH is expected to affect solubility.
Preparation of pH 4.0 samples: The pH 4.0 samples of the CNP compounds were prepared by mixing freeze dried peptide with a pH 4.0 5 mM sodium acetate, 250 mM glycerol buffer at room temperature to a nominal concentration of at least 4000-5000 nmol/mL. The pH of the samples was measured and adjusted to pH 4.0 and the samples were allowed to equilibrate at room temperature until next day if not fully dissolved.
Preparation of pH 6.5 samples: The pH 6.5 samples of the CNP compounds were prepared by dissolving the freeze dried peptide in water. While stirring, a part of the peptide solution was transferred to a buffer consisting of 41 mM sodium phosphate and 118 mg/mL glycerol, pH 7.5-8.0, followed by addition of diluted sodium hydroxide followed by another part of the peptide solution and further addition of diluted sodium hydroxide. This procedure was repeated until all of the peptide solution had been added where a nominal concentration of at least 4000-5000 nmol/mL had been reached and the buffer composition was 8 mM sodium phosphate, 23 mg/mL glycerol. The pH of the samples were measured and adjusted to pH 6.5 and the samples were allowed to equilibrate at room temperature until next day if not fully dissolved.
Procedure: Samples at pH 4.0 were prepared as described above and the compound concentration in the supernatant was determined using CAD (Method F, CAD02).
Samples at pH 6.5 were prepared as described above and peptide concentration in the supernatant was determined by CAD (Method F, CAD02).

As for `CC[C@H](C)[C@@H]1NC(=O)[C@H](CCCNC(=N)N)NC(=O)[C@H](CC(=O)O)NC(=O)[C@H](CC(C)C)NC(=O)[C@@H]2CCCN2C(=O)[C@H](CC(C)C)NC(=O)CNC(=O)[C@H](Cc2ccccc2)NC(=O)[C@@H](NC(=O)CNC(=O)[C@H](CCCCN)NC(=O)[C@H](CO)NC(=O)[C@H](CC(C)C)NC(=O)CNC(=O)[C@H](CCCCN)NC(=O)[C@H](CCCCN)NC(=O)[C@H](CCC(N)=O)NC(=O)[C@H](C)NC(=O)CNC(=O)[C@H](CCC(=O)O)NC(=O)[C@H](Cc2ccc(O)cc2)NC(=O)COCCOCCNC(=O)COCCOCCNC(=O)CC[C@H](NC(=O)CCCCCCCCCCCCCCCCCCC(=O)O)C(=O)O)CSSC[C@@H](C(=O)O)NC(=O)CNC(=O)[C@H](CC(C)C)NC(=O)CNC(=O)[C@H](CO)NC(=O)[C@H](CC(C)C)NC(=O)[C@H](CO)NC(=O)CNC1=O` [compound 1376] ({C20 diacid-γGlu-AEEA-AEEA}-YEGAQKKGLSKGCFGLPLDRIGSLSGLGC-OH; disulfide 13-29), in data set [1] (read-out: Cl (L/hr/kg), i.v. administration (converted)), the clearance is 0.00418 L/h/kg. In data set [1] (read-out: T½ (hr), i.v. administration (converted)), the half-life is 9.55 h.
In general, solubility refers to the concentration that dissolves in the medium under given conditions. Take `CC[C@H](C)[C@@H]1NC(=O)[C@H](CCCNC(=N)N)NC(=O)[C@H](CC(=O)O)NC(=O)[C@H](CC(C)C)NC(=O)[C@@H]2CCCN2C(=O)[C@H](CC(C)C)NC(=O)CNC(=O)[C@H](Cc2ccccc2)NC(=O)[C@@H](NC(=O)CNC(=O)[C@H](CO)NC(=O)[C@H](CO)NC(=O)[C@@H](NC(=O)CNC(=O)[C@@H](NC(=O)[C@H](Cc2c[nH]cn2)NC(=O)[C@H](CCC(N)=O)NC(=O)[C@H](C)NC(=O)CNC(=O)[C@H](Cc2c[nH]cn2)NC(=O)[C@H](Cc2ccc(O)cc2)NC(=O)[C@H](CCCCN)NC(=O)[C@H](CCCNC(=N)N)NC(=O)[C@H](C)NC(=O)COCCOCCNC(=O)COCCOCCNC(=O)CC[C@H](NC(=O)CC[C@H](NC(=O)CCCCCCCCCCCCCCCCC(=O)O)C(=O)O)C(=O)O)[C@@H](C)O)C(C)C)CSSC[C@@H](C(=O)O)NC(=O)CNC(=O)[C@H](CC(C)C)NC(=O)CNC(=O)[C@H](CO)NC(=O)[C@H](CC(C)C)NC(=O)[C@H](CO)NC(=O)CNC1=O` [compound 1419] ({C18 diacid-γGlu-γGlu-AEEA-AEEA}-ARKYHGAQHTGVSSGCFGLPLDRIGSLSGLGC-OH; disulfide 16-32): in data set [2], the “hNPR2 0% HSA. [EC50% rel CNP]” value turned out to be 37.2%. For the same compound, the solubility in data set [3] was 318 µM (≈ 1300 µg/mL).
For `CC[C@H](C)[C@@H]1NC(=O)[C@H](CCCNC(=N)N)NC(=O)[C@H](CC(=O)O)NC(=O)[C@H](CC(C)C)NC(=O)[C@@H]2CCCN2C(=O)[C@H](CC(C)C)NC(=O)CNC(=O)[C@H](Cc2ccccc2)NC(=O)[C@@H](NC(=O)CNC(=O)[C@H](CO)NC(=O)[C@H](CO)NC(=O)[C@@H](NC(=O)CNC(=O)[C@@H](NC(=O)[C@H](CCCCN)NC(=O)[C@H](CCC(N)=O)NC(=O)[C@H](C)NC(=O)CNC(=O)[C@H](CCCCN)NC(=O)[C@H](Cc2ccc(O)cc2)NC(=O)[C@H](CCCCN)NC(=O)[C@H](CCCNC(=N)N)NC(=O)[C@H](C)NC(=O)COCCOCCNC(=O)COCCOCCNC(=O)CC[C@H](NC(=O)CC[C@H](NC(=O)CC[C@H](NC(=O)CCCCCCCCCCCCCCCCC(=O)O)C(=O)O)C(=O)O)C(=O)O)[C@@H](C)O)C(C)C)CSSC[C@@H](C(=O)O)NC(=O)CNC(=O)[C@H](CC(C)C)NC(=O)CNC(=O)[C@H](CO)NC(=O)[C@H](CC(C)C)NC(=O)[C@H](CO)NC(=O)CNC1=O` [compound 1421] ({C18 diacid-γGlu-γGlu-γGlu-AEEA-AEEA}-ARKYKGAQKTGVSSGCFGLPLDRIGSLSGLGC-OH; disulfide 16-32) the same measures were 50.0% and 857 µM (≈ 3600 µg/mL).
